This is an account of results in ChEMBL document CHEMBL5614403, “Efficient synthesis of novel 1,10 phenanthroline-substituted imidazolium salts: Exploring their anticancer applications” (Eur J Med Chem, 2024).

The nature of series [1]: Stability of compound in D2O/DMSO-d6 (20:80) measured upto 1 day by 1H NMR spectroscopic analysis. It is filed as physicochemical. Particulars: 24 h.
The test system of series [2] is MCF7. As to the kind of experiment: Cytotoxicity against human MCF7 cells assessed as cell viability incubated for 72 hrs by MTT assay. Particulars: MCF7, 72 h. In kind it is functional, cell-based. In general terms: Formazan colour is commonly taken as a measure of viable cells.
Series [3] relates to MDA-MB-231. Put plainly: Cytotoxicity against human MDA-MB-231 cells assessed as cell viability incubated for 72 hrs by MTT assay. In kind it is functional, cell-based. Conditions: MDA-MB-231, 72 h.
Series [4] has as its system MCF-10A. As to the kind of experiment: Cytotoxicity against human MCF-10A cells assessed as cell viability incubated for 72 hrs by MTT assay. It is filed as functional, cell-based.
Series [5] can be described thus: Selectivity index, ratio of IC50 for human MCF-10A cells to ratio of IC50 for human MDA-MB-231 cells. In kind it is toxicity. Conditions: MCF-10A cells versus MDA-MB-231 cells, read-out: Selectivity Index.
Series [6] is described as follows: Selectivity index, ratio of IC50 for human MCF-10A cells to ratio of IC50 for human MCF-7 cells. In kind it is toxicity. Conditions: MCF-10A cells versus MCF-7 cells, read-out: Selectivity Index.
Series [7] has as its system MCF7. As to the kind of experiment: Induction of apoptosis in human MCF7 cells incubated for 72 hrs by Annexin V-FITC and PI staining based flow cytometry analysis. It is filed as functional.
The subject of series [8] is MDA-MB-231. Put plainly: Induction of apoptosis in human MDA-MB-231 cells incubated for 72 hrs by Annexin V-FITC and PI staining based flow cytometry analysis. In kind it is functional. For orientation: A flow cytometer gives signals particle by particle.
The nature of series [9]: Downregulation of Bcl-2 mRNA expression level in human MCF7 cells assessed as fold change by qRT-PCR analysis. It is filed as functional.
The nature of series [10]: Downregulation of Bcl-2 mRNA expression level in human MDA-MB-231 cells assessed as fold change by qRT-PCR analysis. It is filed as functional.
Series [11] is described as follows: Upregulation of Bax mRNA expression level in human MCF7 cells assessed as fold change by qRT-PCR analysis. It is filed as functional.
The nature of series [12]: Upregulation of Bax mRNA expression level in human MDA-MB-231 cells assessed as fold change by qRT-PCR analysis. In kind it is functional. Background: In qPCR the cycle at which signal appears reflects the starting amount.
Series [13] is described as follows: Stability of compound in D2O/DMSO-d6 (20:80) measured after 2 days by 1H NMR spectroscopic analysis. In kind it is physicochemical. Particulars: 48 h; time 2 day.
Series [14] can be described thus: Stability of compound in 100 % DMSO-d6 by 1H NMR spectroscopic analysis. It is filed as physicochemical. Particulars: 168 h, TDE = time-dependent effect, time < 7 day.
Series [15] concerns DNA. As to the kind of experiment: Binding affinity to DNA (unknown origin) assessed as intrinsic binding constant at 0 to 15 uM by ultraviolet-visible spectroscopic analysis. In kind it is nucleic-acid assay. Particulars: dose 0-15 µM.
Series [16] concerns MCF7. Put plainly: Downregulation of Bcl-2 protein level in human MCF7 cells measured after 24 to 72 hrs by Western blot analysis. Conditions: time 24-72 hrs. In kind it is functional, cell-based.
Series [17] relates to MDA-MB-231. Put plainly: Downregulation of Bcl-2 protein level in human MDA-MB-231 cells measured after 24 to 72 hrs by Western blot analysis. It is filed as functional, cell-based. Particulars: time 24-72 hrs.
The subject of series [18] is MCF7. Put plainly: Upregulation of Bax protein level in human MCF7 cells measured after 24 to 72 hrs by Western blot analysis. In kind it is functional, cell-based. Conditions: time 24-72 hrs.
Series [19] has as its system MDA-MB-231. As to the kind of experiment: Upregulation of Bax protein level in human MDA-MB-231 cells measured after 24 to 72 hrs by Western blot analysis. It is filed as functional, cell-based. Conditions: time 24-72 hrs.
Series [20] relates to MCF7. Put plainly: Downregulation of Bcl-2 protein level in human MCF7 cells by Western blot analysis. It is filed as functional, cell-based. Particulars: time 24-72 hrs, TDE = time-dependent effect.
For series [21], the system named is MDA-MB-231. Put plainly: Downregulation of Bcl-2 protein level in human MDA-MB-231 cells by Western blot analysis. Conditions: time 24-72 hrs, TDE = time-dependent effect. In kind it is functional, cell-based.
Series [22] has as its system MCF7. As to the kind of experiment: Upregulation of Bax protein level in human MCF7 cells by Western blot analysis. Particulars: time 24-72 hrs, TDE = time-dependent effect. It is filed as functional, cell-based.
Series [23] concerns MDA-MB-231. Put plainly: Upregulation of Bax protein level in human MDA-MB-231 cells by Western blot analysis. In kind it is functional, cell-based. Particulars: time 24-72 hrs, TDE = time-dependent effect.
Series [24] has as its system MDA-MB-231. As to the kind of experiment: Cytotoxicity against human MDA-MB-231 cells assessed as cell viability at 100 uM incubated for 72 hrs by MTT assay relative to control. It is filed as functional. Particulars: read-out: Activity.
Series [25] deals with MCF7. As to the kind of experiment: Cytotoxicity against human MCF7 cells assessed as cell viability at 100 uM incubated for 72 hrs by MTT assay relative to control. Conditions: read-out: Activity. In kind it is functional.
The test system of series [26] is HepG2. Put plainly: Antitumor activity against human HepG2 cells incubated for 72 hrs by MTT assay. In kind it is functional, cell-based. Particulars: HepG2, 72 h.

By IC50 is commonly meant the concentration that gives 50% inhibition. On to `CCCCCCCCCCCC[n+]1ccn(-c2cc3cccnc3c3ncccc23)c1.[Br-]`, for which the Stability entry in series [1] is given as “Stable”; in series [13], “Unstable”; in series [14] it was “Tde”. Further, the values for the IC50 in series [2], in [3] and in series [4] were 15.4 µM, 12.8 µM and 64.2 µM, respectively. The selectivity ratio in series [5] was found to be 5; in series [6], 4.1. Further, the Activity is 89% in series [7]; 95% in [8]; “Dose-Dependent Effect” in [16]; “Dose-Dependent Effect” in series [17]; “Dose-Dependent Effect” in series [18]; “Dose-Dependent Effect” in series [19]. The Activity entry in series [20], in series [21], in series [22] and in series [23] was “Tde” throughout. The “fold change (FC)” value in series [9] is 3.9; in series [10] it was 4.2; in series [11] it was 3.4; in series [12], 3.6. Besides, the Kb in series [15] was found to be 12600 M⁻¹.
As for `Cc1c(C)c(C)c(C[n+]2ccn(-c3cc4cccnc4c4ncccc34)c2)c(C)c1C`, the IC50 in series [2] came out at 49.8 µM; in [3] it was 37.2 µM; in series [4], 32.4 µM.
Take `c1cnc2c(c1)cc(-n1ccnc1)c1cccnc12`: the IC50 in series [2] amounted to 128 µM; in [3], 60.7 µM; in series [4], 237 µM. Also, the results for the viability at 100 µM in [24] and in series [25] were 39.7% and 61.3%, respectively.
Consider `Cc1cc(C)c(C[n+]2ccn(-c3cc4cccnc4c4ncccc34)c2)c(C)c1`, for which the IC50 in series [2] came to 64.2 µM; in series [3] it was 32.7 µM; in series [4] it was 35.9 µM.
For `c1ccc(C[n+]2ccn(-c3cc4cccnc4c4ncccc34)c2)cc1`, in that order: 52 µM, 29.4 µM and 46.7 µM.
In series [26], `c1ccc(-c2nc3c4cccnc4c4ncccc4c3[nH]2)cc1` registered an IC50 of 680 nM.
For `COc1cccc2c1C(=O)c1c(O)c3c(c(O)c1C2=O)C[C@@](O)(C(=O)CO)C[C@@H]3O[C@H]1C[C@H](N)[C@H](O)[C@H](C)O1` [DOXORUBICIN], the IC50 in series [3] came to 4.8 µM.
Consider `CCCC[n+]1ccn(-c2cc3cccnc3c3ncccc23)c1`, for which the IC50 is 43.4 µM in [2], 52.6 µM in series [3] and 48.4 µM in series [4]. The viability at 100 µM turned out to be 25.2% in series [24] and 4.8% in [25].
With `CCCCCCCC[n+]1ccn(-c2cc3cccnc3c3ncccc23)c1`, the results for the IC50 in series [2], in series [3] and in [4] were 49.7 µM, 17.8 µM and 35.1 µM, respectively. The viability at 100 µM in [24] is 10.1%; in [25], 21.1%.
